This test concerns the target T1, CFTR (Homo sapiens, UniProt P13569, DEL508-508).
T1 construct: endogenous in cells; host or cells: primary human bronchial epithelial cells from CF subjects (F508del/MF-HBE), differentiated at air-liquid interface
The test can be described thus: HBE assay: Ussing chamber assay of CFTR-mediated short-circuit currents. The class given is cell-based. As to conditions: for pEC50: read-out: HBE EC50. The method, boiled down:
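CFTR-mediated Isc (μA/cm²) equals the peak response to apical 20 μM forskolin minus the residual after a 20 μM each BPO/GlyH-101/CFTR inhibitor 172 cocktail, recorded in Ussing chambers at Vhold 0 mV, 37 °C, pH 7.4, with 30 μM apical amiloride. Cells were F508del/MF HBE cultures preincubated 18-24 h with corrector (concentration range or 10 μM) plus 1 μM ivacaftor in 20% human serum.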

[1] abbreviates: HBE assay, read-out: HBE Max activity (%).
The mark [2] stands for this setting: Table 13, read-out: HBE Max Activity (%).
The mark [3] stands for this setting: Table 10, read-out: HBE activity at 10 (μM) (%).
[4] abbreviates: Table 12, read-out: HBE Max Activity (%).
Where [5] appears, read: Table 10, read-out: HBE Max activity (%).
The mark [6] stands for this setting: Table 11, read-out: HBE Max Activity (%).
The mark [7] stands for this setting: Table 13, read-out: HBE Activity at 10 μM (%).

pEC50: −log10 of the molar value. Read-outs that look alike come from different tables or passages of the source.

T1 sequence (P13569 with tags, fused parts or gaps DEL508-508): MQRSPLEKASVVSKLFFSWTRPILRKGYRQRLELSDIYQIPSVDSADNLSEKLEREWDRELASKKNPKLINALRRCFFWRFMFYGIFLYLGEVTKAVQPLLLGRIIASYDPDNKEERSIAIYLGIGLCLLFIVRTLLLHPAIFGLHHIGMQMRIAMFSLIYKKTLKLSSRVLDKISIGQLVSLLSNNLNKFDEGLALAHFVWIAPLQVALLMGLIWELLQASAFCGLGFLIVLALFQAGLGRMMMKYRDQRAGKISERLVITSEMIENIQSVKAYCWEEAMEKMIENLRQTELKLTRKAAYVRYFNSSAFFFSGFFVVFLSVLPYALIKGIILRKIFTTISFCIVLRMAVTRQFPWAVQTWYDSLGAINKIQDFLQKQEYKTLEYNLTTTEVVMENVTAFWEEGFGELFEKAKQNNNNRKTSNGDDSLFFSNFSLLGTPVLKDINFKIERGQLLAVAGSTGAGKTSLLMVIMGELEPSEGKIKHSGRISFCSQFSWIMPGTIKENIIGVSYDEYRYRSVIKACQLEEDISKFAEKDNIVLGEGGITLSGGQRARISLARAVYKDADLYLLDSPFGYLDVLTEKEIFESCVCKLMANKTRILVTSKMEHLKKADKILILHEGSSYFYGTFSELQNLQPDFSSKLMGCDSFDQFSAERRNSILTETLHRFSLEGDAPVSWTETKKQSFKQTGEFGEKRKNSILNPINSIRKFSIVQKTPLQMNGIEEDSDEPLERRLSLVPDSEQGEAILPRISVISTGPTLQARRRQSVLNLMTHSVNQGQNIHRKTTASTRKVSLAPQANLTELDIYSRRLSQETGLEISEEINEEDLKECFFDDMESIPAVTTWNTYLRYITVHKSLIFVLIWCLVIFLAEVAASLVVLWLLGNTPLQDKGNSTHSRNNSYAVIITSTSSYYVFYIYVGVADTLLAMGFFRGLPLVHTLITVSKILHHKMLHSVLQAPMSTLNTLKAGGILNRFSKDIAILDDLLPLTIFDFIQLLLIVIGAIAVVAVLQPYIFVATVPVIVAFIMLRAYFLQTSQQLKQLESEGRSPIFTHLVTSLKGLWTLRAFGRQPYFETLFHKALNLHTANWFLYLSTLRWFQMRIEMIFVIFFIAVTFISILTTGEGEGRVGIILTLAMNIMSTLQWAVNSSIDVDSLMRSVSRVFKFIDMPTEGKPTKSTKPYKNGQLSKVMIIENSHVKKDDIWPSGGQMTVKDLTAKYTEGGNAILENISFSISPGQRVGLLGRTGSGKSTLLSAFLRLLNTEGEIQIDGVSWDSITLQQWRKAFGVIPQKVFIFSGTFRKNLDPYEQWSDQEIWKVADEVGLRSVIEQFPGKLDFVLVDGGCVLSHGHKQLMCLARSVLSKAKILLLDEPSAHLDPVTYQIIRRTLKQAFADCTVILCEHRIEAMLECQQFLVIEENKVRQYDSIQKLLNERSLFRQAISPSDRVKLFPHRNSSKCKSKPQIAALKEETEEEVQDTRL

Broadly, the pEC50 is −log10 of the EC50, conventionally taken in molar units. As to `COC[C@H]1CCN(c2cnc(CN3C(=O)c4cccc(c4)S(=O)(=O)Nc4nc(cc(-c5c(C)cccc5C)n4)OC[C@H]3CC(C)(C)C)nc2)C1` [Compound 1439], the pEC50 (HBE assay) is more than 6.00. The Emax under setting [1] was more than 60%.

For `Cc1cccc(C)c1-c1cc2nc(n1)NS(=O)(=O)c1cccc(c1)C(=O)N(Cc1ncc(OC(C)C)cc1Cl)[C@H](CC(C)(C)C)CO2` [Compound 691], the negative-log EC50 (pEC50) (Table 13) was more than 6.00. Further, the Emax under setting [2] is more than 60%.

Regarding `COC(C)(C)CNc1cncc(CN2C(=O)c3cccc(c3)S(=O)(=O)Nc3nc(cc(-c4c(C)cccc4C)n3)OC[C@H]2CC(C)(C)C)n1` [Compound 1483], the pEC50 (HBE assay) was more than 6.00. Moreover, the Emax under setting [1] was more than 60%.

Take `Cc1cccc(C)c1-c1cc2nc(n1)NS(=O)(=O)c1cccc(c1)C1Oc3ccc4ncccc4c3CN1[C@H](CC(C)(C)C)CO2` (stereo partly drawn) [Compound 750]: the activation at 10 µM under setting [3] was more than 60%.

For the compound `COC[C@H]1CCCN1c1cnc(CN2C(=O)c3cccc(c3)S(=O)(=O)Nc3nc(cc(-c4c(C)cccc4C)n3)OC[C@H]2CC(C)(C)C)nc1` [Compound 570], under “Table 12”, the pEC50 was more than 6.00. Moreover, the Emax under setting [4] was more than 60%.

Take `Cc1cccc(C)c1-c1cc2nc(n1)NS(=O)(=O)c1cccc(c1)C(=O)N(Cc1ncc(N3CCC[C@H]3C)cn1)[C@H](CC(C)(C)C)CO2` [Compound 572]: the negative-log EC50 (pEC50) (Table 12) is more than 6.00. Also, the Emax under setting [4] is more than 60%.

`Cc1cccc(C)c1-c1cc2nc(n1)NS(=O)(=O)c1cccc(c1)C(=O)N(CC1CCC(NCC(=O)O)CC1)[C@H](CC(C)(C)C)CO2` (stereo partly drawn) [Compound 911]: the pEC50 (Table 10) is 4.52 to 5.52. Further, the Emax under setting [5] fell in the range of 30 to 60%.

On to `Cc1cccc(C)c1-c1cc2nc(n1)NS(=O)(=O)c1cccc(c1)C(=O)N(Cc1cccc(-c3c[nH]nc3C)c1)[C@H](CC(C)(C)C)CO2` [Compound 312], for which the activation at 10 µM under setting [3] was more than 60%.

As to `Cc1cccc(C)c1-c1cc2nc(n1)NS(=O)(=O)c1cccc(c1)C(=O)N(Cc1nccc(NCC(C)(C)C)n1)[C@H](CC(C)(C)C)CO2` [Compound 646], for the setting “Table 11”, the pEC50 was more than 6.00. Moreover, the Emax under setting [6] is more than 60%.

`Cc1cccc(C)c1-c1cc2nc(n1)NS(=O)(=O)c1cccc(c1)C(=O)N(CC(=O)N1CCC(N(C)C)CC1)[C@H](CC(C)(C)C)CO2` [Compound 186]: the activation at 10 µM under setting [7] was more than 600%.

For `Cc1cccc(C)c1-c1cc2nc(n1)NS(=O)(=O)c1cccc(c1)C(=O)N(Cc1cncc(NC3CCOC3)n1)[C@H](CC(C)(C)C)CO2` (stereo partly drawn) [Compound 1353], for the setting “HBE assay”, the pEC50 was more than 6.00. Besides, the Emax under setting [1] was more than 60%.

With `Cc1cccc(C)c1-c1cc2nc(n1)NS(=O)(=O)c1cccc(c1)C(=O)N(Cc1cccc(NC(C)(C)C)n1)[C@H](CC(C)(C)C)CO2` [Compound 739], the pEC50 (Table 11) is more than 6.00. Moreover, under setting [6], the Emax was more than 60%.

Consider `Cc1cccc(C)c1-c1cc2nc(n1)NS(=O)(=O)c1cccc(c1)C(=O)N(CC1CCCN(CCC(C)(C)C)C1=O)[C@H](CC(C)(C)C)CO2` (stereo partly drawn) [Compound 654], for which the negative-log EC50 (pEC50) (Table 11) is more than 6.00. The Emax under setting [6] is more than 60%.

Turning to `Cc1cccc(C)c1-c1cc2cc(n1)NS(=O)(=O)c1cccc(c1)C(=O)N(Cc1cncc(N(C)CC(C)(C)C)n1)[C@H](CC(C)(C)C)CO2` [Compound 527], for the setting “Table 12”, the pEC50 is more than 6.00. Moreover, under setting [4], the Emax was more than 60%.

Turning to `Cc1cccc(C)c1-c1cc2nc(n1)NS(=O)(=O)c1cccc(c1)C(=O)N(Cc1cccc(N(CCOC(C)C)C(C)C)n1)[C@H](CC(C)(C)C)CO2` [Compound 236], the negative logarithm of the EC50 (pEC50) (Table 13) was 5.52 to 6.00. The Emax under setting [2] is more than 60%.

As for `Cc1cccc(C)c1-c1cc2nc(n1)NS(=O)(=O)c1cccc(c1)C(=O)N(Cc1nc(N(C)C3CC4(CC4)C3)ccc1F)[C@H](CC(C)(C)C)CO2` [Compound 1300, (11R)-6-(2,6-Dimethylphenyl)-11-(2,2-dimethylpropyl)-12-[[3-fluoro-6-[methyl(spiro[2.3]hexan-5-yl)amino]-2-pyridyl]methyl]-2,2-dioxo-9-oxa-2λ^6-thia-3,5,12,19-tetrazatricyclo[12.3.1.14,8]nonadeca-1(18),4(19),5,7,14,16-hexaen-13-one], the pEC50 (HBE assay) is more than 6.00. Further, the Emax under setting [1] is more than 60%.

Consider `Cc1cccc(C)c1-c1cc2nc(n1)NS(=O)(=O)c1cccc(c1)C(=O)N(Cc1nc(C3CC3)cs1)[C@H](CC(C)(C)C)CO2` [Compound 701], for which the activation at 10 µM (Table 12, read-out: HBE Activity at 10 μM (%)) is more than 600%.

As to `Cc1cccc(C)c1-c1cc2nc(n1)NS(=O)(=O)c1cccc(c1)C(=O)N(Cc1cccc(N3CCC[C@H]3C#N)n1)[C@H](CC(C)(C)C)CO2` [Compound 534], under setting [7], the activation at 10 µM was more than 600%.

As to `Cc1cccc(C)c1-c1cc2nc(n1)NS(=O)(=O)c1cccc(c1)C(=O)N(C(=O)c1ccccc1)[C@H](CC(C)(C)C)CO2` [Compound 256], the activation at 10 µM under setting [7] was more than 600%.

Take `Cc1cccc(C)c1-c1cc2nc(n1)NS(=O)(=O)c1cccc(c1)C(=O)N(Cc1ccc(OC(C)C)nn1)[C@H](CC(C)(C)C)CO2` [Compound 234]: the negative logarithm of the EC50 (pEC50) (Table 13) is more than 6.00. Moreover, the Emax under setting [2] was more than 60%.

For the compound `Cc1cccc(C)c1-c1cc2nc(n1)NS(=O)(=O)c1cccc(c1)C(=O)N(Cc1ccc(C3CCCCC3)cc1)[C@H](CC(C)(C)C)CO2` [Compound 495], the negative logarithm of the EC50 (pEC50) (Table 10) was 5.52 to 6.00. Further, under setting [5], the Emax is more than 60%.

As for `Cc1cccc(C)c1-c1cc2nc(n1)NS(=O)(=O)c1cccc(c1)C(=O)N(Cc1ccc3c(n1)N1CCOCC1C(C)C3)[C@H](CC(C)(C)C)CO2` (stereo partly drawn) [Compound 1154], where the note is “Table 13”, the pEC50 is more than 6.00. For the same compound, the Emax under setting [2] is more than 60%.

For `Cc1cccc(C)c1-c1cc2nc(n1)NS(=O)(=O)c1cccc(c1)C(=O)N(Cc1cccc(N3[C@H](C)CC[C@@H]3C)n1)[C@H](CC(C)(C)C)CO2` [Compound 709], the negative-log EC50 (pEC50) (Table 11) was more than 6.00. Further, under setting [6], the Emax was 30 to 60%.

`Cc1cccc(C)c1-c1cc2nc(n1)NS(=O)(=O)c1cccc(c1)C(=O)N(Cc1cccc(/C=C/C(C)(C)C)n1)[C@H](CC(C)(C)C)CO2` [Compound 588]: the negative-log EC50 (pEC50) (Table 12) was more than 6.00. For the same compound, the Emax under setting [4] was more than 60%.

Take `Cc1cccc(C)c1-c1cc2nc(n1)NS(=O)(=O)c1cccc(n1)C(=O)N(Cc1cccc(N3CCCC3C)n1)[C@H](CC(C)(C)C)CO2` (stereo partly drawn) [Compound 1127]: the pEC50 (Table 13) is more than 6.00. Further, under setting [2], the Emax was more than 60%.

In the case of `CCC(C)Oc1cnc(CN2C(=O)c3cccc(c3)S(=O)(=O)Nc3nc(cc(-c4c(C)cccc4C)n3)OC[C@H]2CC(C)(C)C)nc1` (stereo partly drawn) [Compound 1374], under “HBE assay”, the pEC50 is more than 6.00.

As to `Cc1cccc(C)c1-c1cc2nc(n1)NS(=O)(=O)c1cccc(c1)C(=O)N(Cc1cccc(N3CCC34CCCC4)n1)[C@H](CC(C)(C)C)CO2` [Compound 565], the pEC50 (Table 12) was more than 6.00. The Emax under setting [4] was more than 60%.

As to `Cc1cccc(C)c1-c1cc2nc(n1)NS(=O)(=O)c1cccc(c1)C(=O)N(Cc1ccc(N3CC4(CCCO4)C3)cn1)[C@H](CC(C)(C)C)CO2` [Compound 1058], where the note is “Table 13”, the pEC50 was more than 6.00. Also, under setting [2], the Emax was more than 60%.

Consider `COCCCN(C)c1cccc(CN2C(=O)c3cccc(c3)S(=O)(=O)Nc3nc(cc(-c4c(C)cccc4C)n3)OC[C@H]2CC(C)(C)C)n1` [Compound 127, (11R)-6-(2,6-Dimethylphenyl)-11-(2,2-dimethylpropyl)-12-[[6-[3-methoxypropyl(methyl)amino]-2-pyridyl]methyl]-2,2-dioxo-9-oxa-2λ^6-thia-3,5,12,19-tetrazatricyclo[12.3.1.14,8]nonadeca-1(18),4(19),5,7,14,16-hexaen-13-one], for which the pEC50 (Table 10) was more than 6.00. For the same compound, the Emax (read-out: HBE Max activity (%)) is more than 60%.

With `Cc1cccc(C)c1-c1cc2nc(n1)NS(=O)(=O)c1cccc(c1)C(=O)N(Cc1ccc(Cc3nccs3)cc1)[C@H](CC(C)(C)C)CO2` [Compound 296], the negative-log EC50 (pEC50) (Table 10) is more than 6.00. In addition, the Emax under setting [5] was more than 60%.

Turning to `COC(C)(C)CN(C)c1cncc(CN2C(=O)c3cccc(c3)S(=O)(=O)Nc3nc(cc(-c4c(C)cccc4C)n3)OC[C@H]2CC(C)(C)C)n1` [Compound 1491], the pEC50 (HBE assay) is more than 6.00. The Emax under setting [1] is more than 60%.

Regarding `Cc1cccc(C)c1-c1cc2nc(n1)NS(=O)(=O)c1cccc(c1)C(=O)N(Cc1ncc(N3CC(C)(C)OC(C)(C)C3)cn1)[C@H](CC(C)(C)C)CO2` [Compound 1145], the pEC50 (Table 13) was more than 6.00. Also, the Emax under setting [2] is more than 60%.

On to `Cc1cccc(C)c1-c1nc2nc(c1C)OC[C@@H](CC(C)(C)C)N(CC1CCCO1)C(=O)c1cccc(c1)S(=O)(=O)N2` (stereo partly drawn) [Compound 836], for which the Emax under setting [5] was more than 60%.

Take `Cc1cccc(C)c1-c1cc2nc(n1)NS(=O)(=O)c1cccc(c1)C(=O)N(Cc1nc(C3CCC3)no1)[C@H](CC(C)(C)C)CO2` [Compound 1130]: the activation at 10 µM under setting [7] is more than 600%.

Regarding `Cc1cccc(C)c1-c1cc2nc(n1)NS(=O)(=O)c1cccc(c1)C(=O)N(Cc1cccc(NC3CCOC3)n1)[C@H](CC(C)(C)C)CO2` (stereo partly drawn) [Compound 1352], where the note is “HBE assay”, the negative logarithm of the EC50 (pEC50) is more than 6.00. Moreover, the Emax under setting [1] is more than 60%.

With `Cc1cccc(C)c1-c1cc2nc(n1)NS(=O)(=O)c1cccc(c1)C(=O)N(Cc1ncc(OC3CCC3)cc1F)[C@H](CC(C)(C)C)CO2` [Compound 1299, (11R)-12-[[5-(Cyclobutoxy)-3-fluoro-2-pyridyl]methyl]-6-(2,6-dimethylphenyl)-11-(2,2-dimethylpropyl)-2,2-dioxo-9-oxa-2λ^6-thia-3,5,12,19-tetrazatricyclo[12.3.1.14,8]nonadeca-1(18),4(19),5,7,14,16-hexaen-13-one], under “HBE assay”, the negative logarithm of the EC50 (pEC50) was more than 6.00. Also, the Emax under setting [1] was more than 60%.

The record behind these values is patent US20240150377A1, “MODULATORS OF CYSTIC FIBROSIS TRANSMEMBRANE CONDUCTANCE REGULATOR” (VERTEX PHARMACEUTICALS INCORPORATED, priority 2020, published 2024).
